The nature of data set [1]: In vitro biological half-life was measured in human plasma. In kind it is ADME.
For data set [2], the target named is T1, Chymotrypsinogen B (Homo sapiens, UniProt P17538). The data set can be described thus: Inhibitory concentration against human chymotrypsin.
In data set [3] the target is T2, Neutrophil elastase (Homo sapiens) (UniProt P08246).
T2 sequence (whole entry): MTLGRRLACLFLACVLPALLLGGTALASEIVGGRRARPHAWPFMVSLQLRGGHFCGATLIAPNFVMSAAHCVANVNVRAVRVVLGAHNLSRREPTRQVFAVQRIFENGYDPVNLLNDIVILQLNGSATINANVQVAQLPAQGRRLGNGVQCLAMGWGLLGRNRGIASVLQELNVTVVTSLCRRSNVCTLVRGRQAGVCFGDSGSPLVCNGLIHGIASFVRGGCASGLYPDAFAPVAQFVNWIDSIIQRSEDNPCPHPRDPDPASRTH
The data set can be described thus: Percent inhibition against human leukocyte elastase (HLE) at a concentration of 100 microgM.

The next data set addresses T3, Neutrophil elastase (Homo sapiens, UniProt P08246).
T3 sequence (P08246 whole entry): T2 sequence (whole entry)
Description: Inhibitory concentration against human leukocyte elastase (HLE).

The target in data set [4] is T1, Chymotrypsinogen B. The data set can be described thus: Inhibitory concentration against human chymotrypsin at a concentration of 100 uM.
The target of data set [5] is T1, Chymotrypsinogen B. Description: Inhibitory concentration against human chymotrypsin at a concentration of 10 uM.
The target of data set [6] is T2, Neutrophil elastase (Homo sapiens). The data set can be described thus: Percent inhibition against human leukocyte elastase (HLE) at a concentration of 10 microgM.

Data on ten compounds can be found in ChEMBL document CHEMBL1150446, “Inhibition of human cytomegalovirus protease by benzoxazinones and evidence of antiviral activity in cell culture” (Bioorg Med Chem Lett, 1997).

T1 sequence (P17538 34-164 limits assumed, other chains not shown): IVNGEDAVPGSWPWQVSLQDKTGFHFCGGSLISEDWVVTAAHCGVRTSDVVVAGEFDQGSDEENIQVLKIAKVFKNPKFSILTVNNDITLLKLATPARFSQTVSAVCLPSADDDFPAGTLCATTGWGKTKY
T1 sequence (P17538 167-263 limits assumed, other chains not shown): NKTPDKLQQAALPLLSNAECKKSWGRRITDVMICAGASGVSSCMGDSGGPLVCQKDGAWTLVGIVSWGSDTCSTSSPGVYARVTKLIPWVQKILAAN

The half-life is the time needed for the level to fall by half in the phase considered. A word on the IC50: it is the midpoint of a concentration-inhibition curve. A high value points to a need for much substance. The compound `Cc1c(NC(=O)OC(C)(C)C)ccc2nc(N[C@H](C)c3ccccc3)oc(=O)c12` yielded a half-life in data set [1] of 30 min. This compound also displayed an IC50 against Chymotrypsinogen B [2] of 42000 nM.

For orientation: inhibition means the percentage by which the read-out fell short of the control. Lower therefore signals a response near the control. `COc1ccc(S(=O)(=O)Nc2ccc3nc(N[C@H](C)c4ccccc4)oc(=O)c3c2C)cc1`: the inhibition in data set [3] worked out at 66%. The same compound returned a half-life in data set [1] of 50 min. For the same compound, half-maximal inhibition against Chymotrypsinogen B [2] (IC50) was put at 3600 nM.

Compound `Cc1cccc2nc(N[C@H](C)c3ccc(Br)cc3)oc(=O)c12` returned a half-life in data set [1] of 50 min. Also, the IC50 against Neutrophil elastase worked out at 20 nM; on Chymotrypsinogen B [2], 140 nM.

As for `Cc1cccc2nc(N[C@H](C)c3ccccc3)oc(=O)c12`, in data set [1], the half-life was found to be 67 min. This compound showed an IC50 against Chymotrypsinogen B [2] of 88 nM.

`Cc1c(NC(=O)CN2CCCC2)ccc2nc(N[C@H](C)c3ccccc3)oc(=O)c12`: the inhibition was 36% in data set [3] and 47% at Chymotrypsinogen B [4]. The same compound registered a half-life in data set [1] of 32 min.

`Cc1cccc2nc(NC(C)C)oc(=O)c12` displayed a half-life in data set [1] of 107 min. Moreover, the IC50 amounted to 33 nM against Neutrophil elastase and 2000 nM against Chymotrypsinogen B [2].

With `Cc1cccc2nc(N[C@@H](C)c3ccccc3)oc(=O)c12`, the half-life in data set [1] was 70 min. Also, the IC50 against Neutrophil elastase came out at 44 nM; against Chymotrypsinogen B [2] it was 180 nM.

`Cc1c(N(C)C)ccc2nc(N[C@H](C)c3ccccc3)oc(=O)c12` gave a half-life in data set [1] of 127 min. Further, the IC50 on Neutrophil elastase was 3200 nM; on Chymotrypsinogen B [2], 65 nM.

Regarding `Cc1c(NC(=O)CN(C)C)ccc2nc(N[C@H](C)c3ccccc3)oc(=O)c12`, the inhibition in data set [3] worked out at 67%. Further, in data set [1], the half-life was found to be 32 min. Also, on Chymotrypsinogen B [2], it took 2600 nM to reach half-maximal inhibition (IC50).

Take `Cc1c(NC(=O)c2ccccn2)ccc2nc(N[C@H](C)c3ccccc3)oc(=O)c12`: the results for the inhibition (at Chymotrypsinogen B [5]; in data set [6]) were 28% and 29%, respectively. The same compound came in with a half-life in data set [1] of 31 min.
